The values below come from patent US20030089885A1, “Use of low molecular weight acetal, alcohol, acylated alcohol and ester compounds to block or reduce odor of carboxylic acids” (Senomyx, Inc., priority 2001, published 2003).

SMILES strings stand for the structures.

Experiment [1] deals with isovaleric acid. The experiment in a line: Malodor Reduction Test (cross-adaptation, Labeled Magnitude Scale). The following applies: Homo sapiens, inhaled or nasal; 1% (v/v) test substance in diethylphthalate sniffed before 56 ppm aqueous isovaleric acid; perceived intensity on LMS. Format: in vivo. How it is done:
a) Malodor Reduction Test
Each subject's sense of smell was tested using a smell identification test and an isovaleric acid threshold test. To pass the smell ID test the subject had to correctly identify the aromas of peach, spearmint, cinnamon, lime, pineapple and clove. To pass the isovaleric acid threshold test subjects had to detect the odor of isovaleric acid in a one part-per-million (1 ppm weight/volume) aqueous isovaleric acid solution. This is above the 0.12 ppm threshold for a person with a normal sense of smell and below the 5.0 ppm threshold for a person with a specific anosmia to isovaleric acid (Amoore 1977). The use of an odor ID and a threshold test to identify subjects with a normal sense of smell is standard practice, (Cain, Gent et al. 1983).
The target malodor, isovaleric acid, was presented to the subject in a 60 mL, wide mouth amber, screw cap jar. The concentration of isovaleric acid in water that gave an odor intensity of strong or higher on the Labeled Magnitude Scale was 56 parts-per-million (weight/volume). Five milliliters of a 1% (v/v) solution of the test substance in diethylphthalate (DEP) presented in a 20 ml glass vial were used to evaluate the blocker candidate. The labeled the Labeled Magnitude Scale (LMS, FIG. 1) was developed for the quantitative measurement of taste, irritation and odor intensities (Green, Shaffer et al. 1993; Green, Dalton et al. 1996).
Evaluation of a sample for malodor blocking was as follows: a) The subject sniffed the isovaleric acid (target) with both nostrils and scored its intensity using the Labeled Magnitude Scale (LMS), b) The subject waited one minute, c) the subject sniffed the candidate compound twice with the left and then twice with the right nostril, d) the subject sniffed the isovaleric acid target sample within 20 seconds with both nostrils and scored its odor using the LMS, and e) the subject waited for two minutes before proceeding to the next test substance.
The percent malodor reduction (% MOR) was calculated using the following formula:
% MOR=[1−(IVAInt after CA/IVAINT before CA)]×100 where: IVA isovaleric acid
The ratio in this equation goes from zero (complete blocking) to one (no blocking). The % malodor reduction moves in the opposite direction and goes from 100% for complete blocking to 0% for no blocking.
Tables 1, 2, and 3 present the percent malodor reduction for some low molecular weight acetals, alcohols and esters respectively. In each of these tables the standard error of the mean is the standard deviation of the mean divided by the square root of the number of subjects used for the evaluation.

The subject of experiment [2] is isovaleric acid. The experiment in a line: Deodorant stick containing 1% malodor reduction compound, sniff test. Format: in vivo, human. The following applies: compound at 1% by weight of deodorant stick; stick sniffed twice before 56 ppm aqueous isovaleric acid. The text has this: A conventional deodorant stick composition, for example one with the following composition:
is modified by the addition of compound having a malodor reduction value of 80% or more as measured by the malodor reduction test presented in Example 1 in an amount such that it accounts for 1% by weight of the deodorant stick. […] Examples of effective compounds are: 2-Isobutyl-[1,3]dioxane, 2-Isobutyl-4,5-dimethyl-[1,3]dioxolane, 2-Isobutyl-4-methyl-[1,3]dioxane, 2-Isobutyl-4-methyl-[1,3]dioxolane, 1,1-Dimethoxy-3-methyl-butane, 2-lsobutyl-[1,3]dioxolane, 2-(2-Methyl-cyclopropyl)-[1,3]dioxolane, 2-Isobutyl-5-methyl-[1,3]dioxane, 2-Methylcyclopropane methanol, Ethyl isovalerate, Methyl isovalerate, 2-Methyl-cyclopropanecarboxylic acid methyl ester, n-Propyl isovalerate, and 2-Methyl-cyclopropanecarboxylic acid ethyl ester.

For the molecule `CC(C)OC(=O)C1CC1C` (stereo not drawn) [2-Methyl-cyclopropanecarboxylic acid isopropyl ester], the inhibition in vivo at 1 % v/v with isovaleric acid [1] amounted to 68%.

As to `CC(C)CC1OCC(C)O1` (stereo not drawn) [2-Isobutyl-4-methyl-[1,3]dioxolane, 2-Isobutyl-4-methyl-[1,3]dioxolane], the “block of the perception of isovaleric acid by deodorant stick” value (from here on “block”) in the experiment with isovaleric acid [2] is on record as “completely block”. In the experiment on isovaleric acid [1], this molecule registered an inhibition in vivo at 1 % v/v of 89%.

With `CC1CC1CO` (stereo not drawn) [2-Methylcyclopropane methanol], in the experiment with isovaleric acid [2], the “block” value is reported as “completely block”. Further, in the experiment on isovaleric acid [1], the inhibition in vivo at 1 % v/v was 85%.

Consider `CC1(CCO)CC1` [2-(1-Methyl-cyclopropyl)-ethanol, 2-(1-Methyl-cyclopropyl)-ethanol], for which the inhibition in vivo at 1 % v/v in the experiment with isovaleric acid [1] came out at 72%.

Consider `CC(C)CC1OCCO1` [2-Isobutyl-[1,3]dioxolane], for which, in the experiment on isovaleric acid [2], the “block” value is reported as “completely block”. This molecule had an inhibition in vivo at 1 % v/v in the experiment on isovaleric acid [1] of 87%.

With `CCOC(=O)C1CC1C` (stereo not drawn) [2-Methyl-cyclopropanecarboxylic acid ethyl ester], the “block” value in the experiment with isovaleric acid [2] is recorded as “completely block”. The molecule also returned an inhibition in vivo at 1 % v/v in the experiment with isovaleric acid [1] of 81%.

Regarding `OCCC1CC1` [2-Cyclopropylethanol], the inhibition in vivo at 1 % v/v in the experiment with isovaleric acid [1] is 74%.

As to `CC(C)CC1OCCC(C)O1` (stereo not drawn) [2-Isobutyl-4-methyl-[1,3]dioxane, 2-Isobutyl-4-methyl-[1,3]dioxane], the “block” value with isovaleric acid [2] is “completely block”. For the same molecule, the inhibition in vivo at 1 % v/v in the experiment with isovaleric acid [1] worked out at 92%.

Molecule `CC(C)CCO` [Isoamyl Alcohol] gave an inhibition in vivo at 1 % v/v in the experiment on isovaleric acid [1] of 73%.

Regarding `CC1CC1C1OCCO1` (stereo not drawn) [2-(2-Methyl-cyclopropyl)-[1,3]dioxolane, 2-(2-Methyl-cyclopropyl)-[1,3]dioxolane], the “block” value in the experiment with isovaleric acid [2] is “completely block”. The inhibition in vivo at 1 % v/v in the experiment with isovaleric acid [1] was 85%.

`CC(C)CC1OC(C)C(C)O1` (stereo not drawn) [2-Isobutyl-4,5-dimethyl-[1,3]dioxolane, 2-Isobutyl-4,5-dimethyl-[1,3]dioxolane]: the “block” value with isovaleric acid [2] was “completely block”. This molecule showed an inhibition in vivo at 1 % v/v in the experiment with isovaleric acid [1] of 89%.

Turning to `CC(C)CC1OCC(C)CO1` (stereo not drawn) [2-Isobutyl-5-methyl-[1,3]dioxane, 2-Isobutyl-5-methyl-[1,3]dioxane], the “block” value with isovaleric acid [2] is reported as “completely block”. For the same molecule, the inhibition in vivo at 1 % v/v in the experiment on isovaleric acid [1] is 80%.

As to `COC(=O)C1CC1C` (stereo not drawn) [2-Methyl-cyclopropanecarboxylic acid methyl ester], in the experiment with isovaleric acid [2], the “block” value is listed as “completely block”. In the experiment on isovaleric acid [1], the inhibition in vivo at 1 % v/v was determined as 89%.

`CC1CC1CCO` (stereo not drawn) [2-(2-Methyl-cyclopropyl)-ethanol, 2-(2-Methyl-cyclopropyl)-ethanol]: in the experiment with isovaleric acid [1], the inhibition in vivo at 1 % v/v stood at 77%.

In the case of `CC(=O)OCCC(C)C` [Isoamylacetate], the inhibition in vivo at 1 % v/v with isovaleric acid [1] was 67%.

Take `COC(CC(C)C)OC` [1,1-Dimethoxy-3-methyl-butane, 1,1-Dimethoxy-3-methyl-butane]: the “block” value in the experiment with isovaleric acid [2] was “completely block”. This molecule yielded an inhibition in vivo at 1 % v/v with isovaleric acid [1] of 87%.

`CCC1COC(CC(C)C)O1` (stereo not drawn) [4-Ethyl-2-isobutyl-[1,3]dioxolane, 4-Ethyl-2-isobutyl-[1,3]dioxolane]: the inhibition in vivo at 1 % v/v in the experiment on isovaleric acid [1] was found to be 78%.

On to `CCCOC(=O)CC(C)C` [n-Propyl isovalerate], for which the “block” value in the experiment on isovaleric acid [2] is given as “completely block”. In the experiment with isovaleric acid [1], this molecule came in with an inhibition in vivo at 1 % v/v of 83%.

Consider `COC(=O)CC(C)C` [Methyl isovalerate], for which the “block” value with isovaleric acid [2] is “completely block”.

As to `CCOC(=O)CC(C)C` [Ethyl isovalerate], the “block” value with isovaleric acid [2] is listed as “completely block”. This molecule showed an inhibition in vivo at 1 % v/v with isovaleric acid [1] of 94%.

`CC(C)CC(=O)OC(C)C` [Isopropyl isovalerate] showed an inhibition in vivo at 1 % v/v with isovaleric acid [1] of 74%.

As to `CCOC(CC(C)C)OCC` [1,1-Diethoxy-3-methyl-butane, 1,1-Diethoxy-3-methyl-butane], the inhibition in vivo at 1 % v/v with isovaleric acid [1] is 78%.

On to `CC(C)CC1OCCCO1` [2-Isobutyl-[1,3]dioxane], for which, in the experiment on isovaleric acid [2], the “block” value is “completely block”. In addition, the inhibition in vivo at 1 % v/v in the experiment with isovaleric acid [1] was determined as 97%.
